Source: the NIST ThermoML archive (doi:10.1021/acs.jced.9b00112)
± gives the expanded uncertainty stated by the source.

Test: osmotic coefficient (dimensionless); mn = molality of the nth substance listed, in mol/kg
Settings: 101 kPa, Liquid

O=S(=O)([O-])[O-].[Ca+2] [calcium sulfate] + O
Settings | osmotic coefficient
273.12 K, m1 = 0.00937 | 0.732 ± 0.013
273.12 K, m1 = 0.00952 | 0.731 ± 0.013
273.12 K, m1 = 0.01046 | 0.723 ± 0.014
273.12 K, m1 = 0.01092 | 0.719 ± 0.014
273.12 K, m1 = 0.011 | 0.719 ± 0.014
273.13 K, m1 = 0.00526 | 0.78 ± 0.011
273.13 K, m1 = 0.0056 | 0.774 ± 0.011
273.13 K, m1 = 0.00625 | 0.766 ± 0.012
273.13 K, m1 = 0.0067 | 0.76 ± 0.012
273.13 K, m1 = 0.00714 | 0.755 ± 0.012
273.13 K, m1 = 0.00742 | 0.751 ± 0.012
273.13 K, m1 = 0.00782 | 0.747 ± 0.013
273.13 K, m1 = 0.00915 | 0.734 ± 0.013
273.14 K, m1 = 0.00418 | 0.798 ± 0.01
273.14 K, m1 = 0.00487 | 0.786 ± 0.011
